Data as given in article PMC10099595, “Multimodal 4-arylchromene derivatives with microtubule-destabilizing, anti-angiogenic, and MYB-inhibitory activities” (Cancer Drug Resistance, 2023).

Experiments:
[1] = tested on: EA.hy926 endothelial hybrid cells; test: MTT antiproliferative assay, EA.hy926; format: cell-based; conditions: Homo sapiens, EA.hy 926, 72 h
Excerpt: (§1) The following cell lines were used: 518A2 melanoma (Department of Radiotherapy, Medical University of Vienna, Austria)[15], HeLa cervix carcinoma, KBV1^Vbl (ACC-149 cervix carcinoma, MCF7 [ACC-115]) breast carcinoma, U-87 glioblastoma, HT-29 (ACC-299), HCT-116 (ACC-581) and HCT-116p53-/- colon carcinoma, EA.hy926 (ATCC® CRL-2922^TM) endothelial hybrid cells, and HDFa (ATCC® PCS-201-012^TM) adult human dermal fibroblasts. […] Only mycoplasma-free cultures were used.

[2] = tested on: 518A2 melanoma cells; test: MTT antiproliferative assay, 518A2; format: cell-based; conditions: Homo sapiens, 72 h
Excerpt: as §1

[3] = tested on: HCT-116 colon carcinoma cells; test: MTT antiproliferative assay, HCT-116; format: cell-based; conditions: Homo sapiens, 72 h
Excerpt: as §1

[4] = tested on: HCT-116 p53-/- colon carcinoma cells; test: MTT antiproliferative assay, HCT-116 p53-/-; format: cell-based; conditions: Homo sapiens, 72 h
Excerpt: as §1

[5] = tested on: U-87 glioblastoma cells; test: MTT antiproliferative assay, U87; format: cell-based; conditions: Homo sapiens, 72 h
Excerpt: as §1

[6] = tested on: HT-29 colon carcinoma cells; test: MTT antiproliferative assay, HT-29; format: cell-based; conditions: Homo sapiens, 72 h
Excerpt: as §1

[7] = tested on: KB-V1^Vbl cervix carcinoma cells; test: MTT antiproliferative assay, KB-V1Vbl (with or without verapamil); format: cell-based, human; conditions: for IC50: Homo sapiens, KB-V1/Vbl, MTT, 72 h, without verapamil, read-out: IC50 KB-V1^Vbl; for P-gp substrate / dependence on P-gp: inferred from KB-V1^Vbl cells with and without verapamil
Excerpt: as §1

[8] = tested on: HeLa cervix carcinoma cells; test: MTT antiproliferative assay, HeLa; format: cell-based; conditions: Homo sapiens, 72 h
Excerpt: as §1

[9] = tested on: MCF-7 breast carcinoma cells; test: MTT antiproliferative assay, MCF-7; format: cell-based; conditions: Homo sapiens, MCF7, 72 h
Excerpt: as §1

[10] = tested on: tested cancer and hybrid cell lines; test: MTT assay, average over all tested cancer and hybrid cell lines; conditions: Homo sapiens, read-out: Average IC50 value of the tested cancer and hybrid cell lines (Ø IC50), average of all cell lines of Table 2
Protocol: An 3-(4, 5-dimethylthiazol-2-yl)-2, 5-diphenyl tetrazolium bromid (MTT) assay was used for antiproliferative studies. Cancer cells (5 × 10^4 cells/mL, 100 μL/well) were placed in 96-well plates (10 × 10^4 cells/mL for HDFA and U87 cells), and the cells were incubated for 24 h at 5% CO2 and 95% humidity. Then, cells were treated with test compounds (at various concentrations) or solely with DMSO as a negative control for 72 h. Then, 12.5 μL of a 0.5% MTT solution in phosphate-buffered saline (PBS) was added to the cells, followed by incubation for 2 h at 37 °C. After centrifugation of the plates (300 × g, 5 min, 4 °C), the medium was discarded, and 25 μL of DMSO containing 10% SDS and 0.6% acetic acid was added, followed by incubation at 37 °C for at least 1 h. Formazan absorbance at λ = 570 nm was measured using a Tecan infinite F200 microplate reader and corrected for the background (λ = 630 nm). The 50% inhibitory concentration (IC50) values were calculated from dose-response curves (means ± SD, four independent experiments) compared to DMSO-treated control cells, which were set to 100%. GraphPad Prism 9 was used for curve-fitting.
The selectivity index (SI) was calculated as a measure of selectivity toward cancer cells compared to non-malignant cells.

| IC50 [2] [nM] | IC50 [3] [nM] | IC50 [4] [nM] | IC50 [5] [nM] | IC50 [6] [nM] | IC50 [7] [nM] | IC50 [8] [nM] | IC50 [9] [nM] | IC50 [10] [nM] | SMILES | IC50 [1] [nM] | P-gp substrate / dependence on P-gp [7] |
| --- | --- | --- | --- | --- | --- | --- | --- | --- | --- | --- | --- |
| 500 ± 30 | 2500 ± 40 | 1600 ± 160 | 5100 ± 500 | 500 ± 50 | 3800 ± 400 | 1500 ± 70 | > 50000 | > 500 | COc1ccc2c(c1)OC(N)=C(C#N)C2c1ccc(F)cc1F (stereo not shown) [2L, 2-Amino-3-cyano-4-(2’, 4’-difluorophenyl)-7-methoxy-4H-chromene] | 200 ± 10 | – |
| 300 ± 10 | 500 ± 50 | 200 ± 8 | 400 ± 60 | 200 ± 20 | 900 ± 90 | 90 ± 2 | 200 ± 30 | 330 | COc1ccc2c(c1)OC(N)=C(C#N)C2c1cccc(F)c1F (stereo not shown) [2M, 2-Amino-3-cyano-4-(2’, 3’-difluorophenyl)-7-methoxy-4H-chromene] | 400 ± 10 | P-gp substrates |
| 90 ± 60 | 500 ± 50 | 200 ± 10 | 500 ± 100 | 400 ± 30 | 700 ± 70 | 200 ± 20 | 300 ± 7 | > 500 | COc1ccc2c(c1)OC(N)=C(C#N)C2c1cc(F)ccc1F (stereo not shown) [2N, 2-Amino-3-cyano-4-(2’, 5’-difluorophenyl)-7-methoxy-4H-chromene] | 4700 ± 900 | P-gp substrates |
| 60 ± 6 | 1400 ± 50 | 40 ± 3 | 100 ± 10 | 70 ± 8 | 20 ± 2 | 40 ± 4 | 400 ± 60 | 203 | COc1ccc2c(c1)OC(N)=C(C#N)C2c1cc(F)cc(F)c1 (stereo not shown) [2O] | 40 ± 1 | no dependence on P-gp |
| 300 ± 30 | 300 ± 20 | 300 ± 20 | 1100 ± 90 | 200 ± 5 | – | 100 ± 20 | 400 ± 50 | 330 | COc1ccc2c(c1)OC(N)=C(C#N)C2c1cc(F)c(F)c(F)c1 (stereo not shown) [2P, 2-Amino-3-cyano-4-(3’, 4’, 5’-trifluorophenyl)-7-methoxy-4H-chromene] | 400 ± 40 | no dependence on P-gp |
| 300 ± 10 | 700 ± 40 | 2900 ± 10 | 900 ± 60 | 400 ± 30 | 1900 ± 100 | 400 ± 4 | 800 ± 30 | > 500 | COc1ccc2c(c1)OC(N)=C(C#N)C2c1cccc(S(F)(F)(F)(F)F)c1 (stereo not shown) [2Q, 2-Amino-3-cyano-4-(3’-pentafluorothiophenyl)-7-methoxy-4H-chromene] | 600 ± 20 | – |
| 30 ± 2 | 300 ± 30 | 200 ± 20 | 900 ± 50 | 200 ± 20 | 30 ± 0.4 | 300 ± 20 | 10 ± 0.8 | 227 | COc1ccc2c(c1)OC(N)=C(C#N)C2c1cccc([N+](=O)[O-])c1 (stereo not shown) [2R] | 300 ± 9 | – |
